Key:
[1] = Long-term stability testing, inspection items; assay type: physicochemical; settings: for Appearance / Content (%) / HPLC identification / Moisture (%) / Particle size d (0.5) / Particle size d (0.9) / Related substance (%) Maximum unknown single impurity / Related substance (%) Total impurities: 30° C./65% humidity
Experimental: The samples were prepared according to the method of Example 1, and then were placed under the long-term stability conditions (temperature: 30° C.±2° C.; humidity: 65%±5%) for six months.

[2] = Hygroscopicity: weight gain due to moisture absorption; assay type: physicochemical
Experimental: The samples were prepared according to the method of Example 1, and the following tests were carried out:
(1) placing the sample at 25° C. and 75% humidity;
(2) placing the sample at 25° C. and 92.5% humidity.
The aforementioned two samples were taken and tested at different time points to investigate weight gain of the samples due to moisture absorption.

In the case of CNCc1cc(-c2ccccc2F)n(S(=O)(=O)c2cccnc2)c1.O=C(O)/C=C/C(=O)O [Example 1, 1-[5-(2-fluorophenyl)-1-(pyridin-3-ylsulfonyl)-1H-pyrrol-3-yl]-N-methylmethanamine fumarate], the Appearance ([1]; 0 months) is reported as “White powder”, the “Content (%)” value ([1]; 0 months) is reported as 99.6% and the HPLC identification ([1]; 0 months) is reported as “Consistent”. For the same compound, the “Moisture (%)” value ([1]; 0 months) was 0.04%, the “Particle size d (0.5)” value ([1]; 0 months) was “d (0.5) ≤15 μm” and the “Particle size d (0.9)” value ([1]; 0 months) was “d (0.9) ≤30 μm”. For the same compound, the “Related substance (%) Maximum unknown single impurity” value ([1]; 0 months) was 0.03%, the “Related substance (%) Total impurities” value ([1]; 0 months) was 0.12% and the Appearance ([1]; 3 months) was “White powder”. The “Content (%)” value ([1]; 3 months) was 100.0%, the HPLC identification ([1]; 3 months) was “Consistent” and the “Moisture (%)” value ([1]; 3 months) was 0.08%. The “Particle size d (0.5)” value ([1]; 3 months) was “d (0.5) ≤15 μm”, the “Particle size d (0.9)” value ([1]; 3 months) was “d (0.9) ≤30 μm” and the “Related substance (%) Maximum unknown single impurity” value ([1]; 3 months) was 0.04%. The “Related substance (%) Total impurities” value ([1]; 3 months) was 0.13%, the Appearance ([1]; 6 months) was “White powder” and the “Content (%)” value ([1]; 6 months) was 99.7%. For the same compound, the HPLC identification ([1]; 6 months) was “Consistent”, the “Moisture (%)” value ([1]; 6 months) was 0.08% and the “Particle size d (0.5)” value ([1]; 6 months) was “d (0.5) ≤15 μm”. The “Particle size d (0.9)” value ([1]; 6 months) was “d (0.9) ≤30 μm”, the “Related substance (%) Maximum unknown single impurity” value ([1]; 6 months) was 0.03% and the “Related substance (%) Total impurities” value ([1]; 6 months) was 0.13%. For the same compound, the Stability ([1]; long-term storage conditions, 30° C.±2° C., humidity 65%±5%, six months, fumarate) was “good stability”, the “weight gain due to moisture absorption (%)” value (“weight gain due … (%)” for short) ([2]; 25° C./RH 75%, 5 days) was 0.01% and the “weight gain due … (%)” value ([2]; 25° C./RH 75%, 10 days) was 0.13%. The “weight gain due … (%)” value ([2]; 25° C./RH 75%, 30 days) was 0.12%, the “weight gain due … (%)” value ([2]; 25° C./RH 92.5%, 5 days) was 0.17% and the “weight gain due … (%)” value ([2]; 25° C./RH 92.5%, 10 days) was 0.12%. For the same compound, the “weight gain due … (%)” value ([2]; 25° C./RH 92.5%, 30 days) was 0.19%.

From patent US10538506B2, “Crystal form of a potassium-competitive acid blocker and preparation method thereof” (Jiangsu Hansoh Pharmaceutical Group Co., Ltd., priority 2014, dated 2020)
